One data set concerns J774. Description: Antiproliferative activity against mouse J774 cells […] after 72 hrs by MTT assay. Type of data set: functional, cell-based. On the technique in general: Tetrazolium assays rely on reduction of a dye to a coloured formazan, in cell work by metabolically active cells.
A further data set deals with WEHI-164. Description: Antiproliferative activity against mouse WEHI164 cells […] after 72 hrs by MTT assay. Format: functional, cell-based.
In another data set the test system is HEK293. As to the kind of experiment: Antiproliferative activity against HEK293 cells […] after 72 hrs by MTT assay. Type of data set: cell-based. Particulars: human, hek293, 72 h.

Active and inactive are the calls of the source. The calls are words filed in the database; no cut-off is given here.

These results are taken from ChEMBL document CHEMBL1150861, “Triterpene saponins from Tupidanthus calyptratus” (J Nat Prod, 2001).

`C[C@@H]1O[C@@H](OC[C@H]2O[C@@H](OC(=O)[C@]34CC[C@](C)(O)[C@H](C)[C@H]3C3=CC[C@@H]5[C@@]6(C)CC[C@H](O[C@@H]7OC[C@H](O)[C@H](O[C@@H]8OC[C@@H](O)[C@H](O)[C@H]8O)[C@H]7O)[C@@](C)(CO)[C@@H]6CC[C@@]5(C)[C@]3(C)CC4)[C@H](O)[C@@H](O)[C@@H]2O)[C@H](O)[C@H](O)[C@H]1O`: the outcome in the data set with J774 and in the data set with WEHI-164 was inactive. The Activity result in the data set with HEK293 was “Not Active”.
Regarding `C[C@@H]1[C@H]2C3=CC[C@@H]4[C@@]5(C)C[C@@H](O)[C@H](O[C@@H]6OC[C@H](O)[C@H](O)[C@H]6O)[C@@](C)(CO)[C@@H]5CC[C@@]4(C)[C@]3(C)CC[C@@]2(C(=O)O[C@@H]2O[C@H](CO)[C@@H](O)[C@H](O)[C@H]2O)CC[C@]1(C)O`, the outcome in the data set with J774 and with WEHI-164 was inactive. Further, the Activity entry in the data set with HEK293 was “Not Active”.
In the case of `C[C@@H]1[C@H]2C3=CC[C@@H]4[C@@]5(C)C[C@@H](O)[C@H](O[C@@H]6OC[C@H](O)[C@H](O[C@@H]7OC[C@@H](O)[C@H](O)[C@H]7O)[C@H]6O)[C@@](C)(CO)[C@@H]5CC[C@@]4(C)[C@]3(C)CC[C@@]2(C(=O)O[C@@H]2O[C@H](CO[C@@H]3O[C@H](CO)[C@@H](O)[C@H](O)[C@H]3O)[C@@H](O)[C@H](O)[C@H]2O)CC[C@]1(C)O`, the outcome with J774 and with WEHI-164 was inactive. Besides, the Activity result with HEK293 is “Not Active”.
Consider `C[C@@H]1[C@H]2C3=CC[C@@H]4[C@@]5(C)C[C@@H](O)[C@H](O[C@@H]6OC[C@H](O)[C@H](O[C@@H]7OC[C@@H](O)[C@H](O)[C@H]7O)[C@H]6O)[C@@](C)(CO)[C@@H]5CC[C@@]4(C)[C@]3(C)CC[C@@]2(C(=O)O[C@@H]2O[C@H](CO)[C@@H](O)[C@H](O)[C@H]2O)CC[C@]1(C)O`, for which the result with J774 and in the data set on WEHI-164 was inactive. The Activity entry in the data set with HEK293 is reported as “Not Active”.
